In patent US12435060B2, “Acylamino bridged heterocyclic compound, and composition and application thereof” (BEIJING SCITECH-MQ PHARMACEUTICALS LIMITED, priority 2019, dated 2025):

tested on: HT29 cells; assay: Inhibition of cell necrosis (CCK8 method), induced programmed necrosis of HT29 cells; type: cell-based; settings: Homo sapiens, HT-29; rescue from necrosis induced by TNF-α 20 ng/mL, AT-406 1 μM, Z-VAD-FMK 20 μM; 16-20 hours; CCK-8, OD 450 nm
How it was run: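 Rescue from programmed necrosis was scored by CCK-8 absorbance at 450 nm after 16-20 h of TNF-α (20 ng/mL), AT-406 (1 μM) and Z-VAD-FMK (20 μM) at 37 °C, 5% CO2. HT29 cells had received compound 30 min earlier across nine 4-fold dilutions (top 25000 nM final). IC50 came from % inhibition relative to uninduced and induced-only wells.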

| Compound | IC50 [nM] |
| --- | --- |
| O=C(Nc1cc(-c2cc(OCCC3CCOCC3)ccc2F)ccn1)c1nnc(Cc2ccccc2F)[nH]1 [Example 316, N-(4-(2-fluoro-5-(2-(tetrahydro-2H-pyran-4-yl)ethoxy)phenyl)pyridin-2-yl)-5-(2-fluorobenzyl)-4H-1,2,4-triazole-3-carboxamide] | 100 to 1000 |
| CC(C)(O)CCCCOc1ccc(Cl)c(-c2cc(NC(=O)c3nnc(Cc4ccccc4F)[nH]3)ncc2Cl)c1 [Example 420, N-(5-chloro-4-(2-chloro-5-((5-hydroxyl-5-methylhexyl)oxy)phenyl)pyridin-2-yl)-5-(2-fluorobenzyl)-4H-1,2,4-triazole-3-carboxamide] | 100 to 1000 |
| Cc1ccc(OCCCC(C)(C)O)cc1-c1ccnc(NC(=O)c2nnc(Cc3ccccn3)[nH]2)c1 [Example 219, N-(4-(5-((4-hydroxy-4-methylpentyl)oxy)-2-methylphenyl)pyridin-2-yl)-5-(pyridin-2-ylmethyl)-4H-1,2,4-triazole-3-carboxamide] | ≤ 100 |
| CC(C)(O)CCCCOc1ccc(C(F)(F)F)c(-c2ccnc(NC(=O)c3nnc(CC4CCCC4)[nH]3)c2)c1 [Example 270, 5-(cyclopentylmethyl)-N-(4-(5-((5-hydroxyl-5-methylhexyl)oxy)-2-(trifluoromethyl)phenyl)pyridin-2-yl)-4H-1,2,4-triazole-3-carboxamide] | ≤ 100 |
| CC(C)Oc1ccc(Cl)c(-c2ccnc(NC(=O)c3nnc(Cc4ccccc4)[nH]3)c2)c1 [Example 111, 5-benzyl-N-(4-(2-chloro-5-isopropoxyphenyl)pyridin-2-yl)-4H-1,2,4-triazole-3-carboxamide] | ≤ 100 |
| O=C(Nc1cc(-c2cc(OCCCCCO)ccc2C(F)(F)F)ccn1)c1nnc(CC2CCCC2)[nH]1 [Example 277, 5-(cyclopentylmethyl)-N-(4-(5-((5-hydroxypentyl)oxy)-2-(trifluoromethyl)phenyl)pyridin-2-yl)-4H-1,2,4-triazole-3-carboxamide] | ≤ 100 |
| O=C(Nc1cc(-c2cc(OCC3CCOCC3)ccc2F)c(F)cn1)c1nnc(CC2CCCCC2)[nH]1 [Example 328, 5-(cyclohexylmethyl)-N-(5-fluoro-4-(2-fluoro-5-((tetrahydro-2H-pyran-4-yl)methoxy)phenyl)pyridin-2-yl)-4H-1,2,4-triazole-3-carboxamide] | ≤ 100 |
| COc1ccc(C)c(-c2cncc(NC(=O)c3nnc(Cc4ccccc4)[nH]3)c2)c1 [Example 196, 5-benzyl-N-(5-(5-methoxy-2-methylphenyl)pyridin-3-yl)-4H-1,2,4-triazole-3-carboxamide] | > 10000 |
| Cc1ccc(OCCCC(C)(C)O)cc1-c1cc(NC(=O)c2nnc(CC3CCCCC3)[nH]2)ncc1F [Example 493, 5-(cyclohexylmethyl)-N-(5-fluoro-4-(5-((4-hydroxy-4-methylpentyl)oxy)-2-methylphenyl)pyridin-2-yl)-4H-1,2,4-triazole-3-carboxamide] | ≤ 100 |
| Cc1ccc(OCCC2CCOCC2)cc1-c1ccnc(NC(=O)c2nnc(CC3CCCCC3)[nH]2)c1 [Example 89, 5-(cyclohexylmethyl)-N-(4-(2-methyl-5-(2-(tetrahydro-2H-pyran-4-yl)ethoxy)phenyl)pyridin-2-yl)-4H-1,2,4-triazole-3-carboxamide] | ≤ 100 |
| CCC(O)(CC)CCCOc1ccc(C(F)(F)F)c(-c2ccnc(NC(=O)c3nnc(Cc4ccccc4)[nH]3)c2)c1 [Example 260, 5-benzyl-N-(4-(5-((4-ethyl-4-hydroxyhexyl)oxy)-2-(trifluoromethyl)phenyl)pyridin-2-yl)-4H-1,2,4-triazole-3-carboxamide] | ≤ 100 |
| Cc1ccc(OCCCC(C)(C)O)cc1-c1ccnc(NC(=O)c2nnc(Cc3cccc(C#N)c3)[nH]2)c1 [Example 187, 5-(3-cyanobenzyl)-N-(4-(5-((4-hydroxy-4-methylpentyl)oxy)-2-methylphenyl)pyridin-2-yl)-4H-1,2,4-triazole-3-carboxamide] | ≤ 100 |
| CC(C)(O)CCCOc1ccc(C#N)c(-c2ccnc(NC(=O)c3nnc(Cc4ccccc4)[nH]3)c2)c1 [Example 193, 5-benzyl-N-(4-(2-cyano-5-((4-hydroxy-4-methylpentyl)oxy)phenyl)pyridin-2-yl)-4H-1,2,4-triazole-3-carboxamide] | ≤ 100 |
| Cc1cc(F)cc(Cc2nnc(C(=O)Nc3cc(-c4cc(OCCCC(C)(C)O)ccc4Cl)ccn3)[nH]2)c1 [Example 344, N-(4-(2-chloro-5-((4-hydroxy-4-methylpentyl)oxy)phenyl)pyridin-2-yl)-5-(3-fluoro-5-methylbenzyl)-4H-1,2,4-triazole-3-carboxamide] | 100 to 1000 |
| CCOCCN(C)c1ccc(C)c(-c2ccnc(NC(=O)c3nnc(Cc4ccccc4)[nH]3)c2)c1 [Example 56, 5-benzyl-N-(4-(5-((2-ethoxyethyl)(methyl)amino)-2-methylphenyl)pyridin-2-yl)-4H-1,2,4-triazole-3-carboxamide] | 100 to 1000 |
| O=C(Nc1cc(-c2cc(OCCC3CCOCC3)ccc2C(F)(F)F)ccn1)c1nnc(CC2CCCC2)[nH]1 [Example 309, 5-(cyclopentylmethyl)-N-(4-(5-(2-(tetrahydro-2H-pyran-4-yl)ethoxy)-2-(trifluoromethyl)phenyl)pyridin-2-yl)-4H-1,2,4-triazole-3-carboxamide] | ≤ 100 |
| O=C(Nc1cc(-c2cc(OCC3CCOCC3)ccc2Cl)ccn1)c1nnc(CC2CCCC2)[nH]1 [Example 401, N-(4-(2-chloro-5-((tetrahydro-2H-pyran-4-yl)methoxy)phenyl)pyridin-2-yl)-5-(cyclopentylmethyl)-4H-1,2,4-triazole-3-carboxamide] | ≤ 100 |
| Cc1ccc(N(C)CCCO)cc1-c1ccnc(NC(=O)c2nnc(Cc3ccccc3)[nH]2)c1 [Example 57, 5-benzyl-N-(4-(5-((3-hydroxypropyl)(methyl)amino)-2-methylphenyl)pyridin-2-yl)-4H-1,2,4-triazole-3-carboxamide] | 100 to 1000 |
| Cc1ccc(OCCCC(C)(C)O)cc1-c1ccnc(NC(=O)c2nnc(CC(C)C)[nH]2)c1 [Example 169, N-(4-(5-((4-hydroxy-4-methylpentyl)oxy)-2-methylphenyl)pyridin-2-yl)-5-isobutyl-4H-1,2,4-triazole-3-carboxamide] | ≤ 100 |
| Cc1ccc(OCCCCCO)cc1-c1ccnc(NC(=O)c2nnc(CC3CCCC3)[nH]2)c1 [Example 224, 5-(cyclopentylmethyl)-N-(4-(5-((5-hydroxypentyl)oxy)-2-methylphenyl)pyridin-2-yl)-4H-1,2,4-triazole-3-carboxamide] | ≤ 100 |
| CCC(O)(CC)CCCOc1ccc(C)c(-c2cc(NC(=O)c3nnc(Cc4ccccc4F)[nH]3)ncc2F)c1 [Example 242, N-(4-(5-((4-ethyl-4-hydroxyhexyl)oxy)-2-methylphenyl)-5-fluoropyridin-2-yl)-5-(2-fluorobenzyl)-4H-1,2,4-triazole-3-carboxamide] | ≤ 100 |
| COCCCOc1ccc(C(F)(F)F)c(-c2ccnc(NC(=O)c3nnc(CC4CCCC4)[nH]3)c2)c1 [Example 297, 5-(cyclopentylmethyl)-N-(4-(5-(3-methoxypropoxy)-2-(trifluoromethyl)phenyl)pyridin-2-yl)-4H-1,2,4-triazole-3-carboxamide] | ≤ 100 |
| Cc1ccc(OCCCC(C)(C)O)cc1-c1ccnc(NC(=O)c2nnc(CC3CCCC3)o2)c1 [Example 174, 5-(cyclopentylmethyl)-N-(4-(5-((4-hydroxy-4-methylpentyl)oxy)-2-methylphenyl)pyridin-2-yl)-4H-1,3,4-oxadiazole-2-carboxamide] | 100 to 1000 |
